According to US20230085307A1, “PYRIDAZINONE COMPOUND AND HERBICIDE” (NISSAN CHEMICAL CORPORATION, priority 2019, published 2023):

Legend:
Japanese bulrush = assay: Test Example 1: herbicidal activity, application before weed generation under submerged conditions (Table 16, symbol B); assay type: in vivo, Japanese bulrush (Schoenoplectus juncoides); conditions: amount of applied herbicide 320 g/ha
Outline: (§1)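 Alluvial soil was flooded to 4 cm depth, weed seeds were sown mixed and 2.5-leaf rice seedlings were transplanted. On sowing day, the compound's emulsion, diluted in water to a set dose, was applied to the water surface. Plants grew at 25–30 °C and were scored 0–5 after three weeks.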

blackgrass [1] = assay: Test Example 4: herbicidal effect by soil treatment (Table 19, symbol J); assay type: in vivo, blackgrass (Alopecurus myosuroides); conditions: amount of applied herbicide 320 g/ha
Outline: (§2)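 Herbicidal effect was rated 3 weeks after treatment, using the scoring criteria of an earlier test. The compound, formulated as an emulsion and diluted in water to a set herbicide amount, had been sprayed uniformly on soil over freshly sown seeds. Growth took place in a greenhouse at 25° C. to 30° C.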

green foxtail [2] = assay: Test Example 4: herbicidal effect by soil treatment (Table 19, symbol G); assay type: in vivo, green foxtail (Setaria viridis); conditions: amount of applied herbicide 320 g/ha
Outline: as §2

persian speedwell [3] = assay: Test Example 4: herbicidal effect by soil treatment (Table 19, symbol R); assay type: in vivo, Persian speedwell (Veronica persica); conditions: amount of applied herbicide 320 g/ha
Outline: as §2

false cleavers [4] = assay: Test Example 5: herbicidal effect by foliage application, plastic box (Table 20, symbol Q); assay type: in vivo, false cleavers (Galium spurium)
Outline: (§3)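 Foliar spray test: emulsion formulation diluted in water to a set application rate, sprayed onto 14-day-old plants raised in diluvial soil at 25° C to 30° C under glass. Both herbicidal effect and crop effect rated visually three weeks later.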

southern crabgrass [5] = assay: Test Example 5: herbicidal effect by foliage application, plastic box (Table 20, symbol F); assay type: in vivo, southern crabgrass (Digitaria ciliaris)
Outline: as §3

redroot pigweed [6] = assay: Test Example 4: herbicidal effect by soil treatment (Table 19, symbol N); assay type: in vivo, redroot pigweed (Amaranthus retroflexus); conditions: amount of applied herbicide 320 g/ha
Outline: as §2

southern crabgrass [7] = assay: Test Example 4: herbicidal effect by soil treatment (Table 19, symbol F); assay type: in vivo, southern crabgrass (Digitaria ciliaris); conditions: amount of applied herbicide 320 g/ha
Outline: as §2

rice flat sedge = assay: Test Example 3: herbicidal effect by foliage application, Wagner pot (Table 18, symbol E); assay type: in vivo, rice flat sedge (Cyperus iria); conditions: 320 g/ha
Outline: (§4)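 Plants were sown in alluvial soil held under 0.1–0.5 cm standing water and grown 14 days in a greenhouse at 25–30 °C. An emulsifiable formulation, water-diluted to the set dose, was then sprayed onto the foliage, and effects were scored three weeks later using previously defined criteria.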

wild oat [8] = assay: Test Example 5: herbicidal effect by foliage application, plastic box (Table 20, symbol I); assay type: in vivo, wild oat (Avena fatua)
Outline: as §3

Chinese sprangletop = assay: Test Example 3: herbicidal effect by foliage application, Wagner pot (Table 18, symbol D); assay type: in vivo, chinese sprangletop (Leptochloa chinensis); conditions: 320 g/ha
Outline: as §4

barnyard grass [9] = assay: Test Example 4: herbicidal effect by soil treatment (Table 19, symbol H); assay type: in vivo, barnyard grass (Echinochloa crus-galli); conditions: amount of applied herbicide 320 g/ha
Outline: as §2

chickweed [10] = assay: Test Example 4: herbicidal effect by soil treatment (Table 19, symbol P); assay type: in vivo, common chickweed (Stellaria media); conditions: amount of applied herbicide 320 g/ha
Outline: as §2

windgrass [11] = assay: Test Example 5: herbicidal effect by foliage application, plastic box (Table 20, symbol L); assay type: in vivo, windgrass (Apera spica-venti)
Outline: as §3

late watergrass = assay: Test Example 1: herbicidal activity, application before weed generation under submerged conditions (Table 16, symbol A); assay type: in vivo, late watergrass (Echinochloa oryzicola); conditions: amount of applied herbicide 320 g/ha
Outline: as §1

chickweed [12] = assay: Test Example 5: herbicidal effect by foliage application, plastic box (Table 20, symbol P); assay type: in vivo, common chickweed (Stellaria media)
Outline: as §3

velvetleaf [13] = assay: Test Example 4: herbicidal effect by soil treatment (Table 19, symbol M); assay type: in vivo, velvetleaf (Abutilon theophrasti); conditions: amount of applied herbicide 320 g/ha
Outline: as §2

windgrass [14] = assay: Test Example 4: herbicidal effect by soil treatment (Table 19, symbol L); assay type: in vivo, windgrass (Apera spica-venti); conditions: amount of applied herbicide 320 g/ha
Outline: as §2

lambsquarters [15] = assay: Test Example 4: herbicidal effect by soil treatment (Table 19, symbol O); assay type: in vivo, lambsquarters (Chenopodium album); conditions: amount of applied herbicide 320 g/ha
Outline: as §2

Italian ryegrass [16] = assay: Test Example 4: herbicidal effect by soil treatment (Table 19, symbol K); assay type: in vivo, Italian ryegrass (Lolium multiflorum); conditions: amount of applied herbicide 320 g/ha
Outline: as §2

barnyard grass [17] = assay: Test Example 3: herbicidal effect by foliage application, Wagner pot (Table 18, symbol H); assay type: in vivo, barnyard grass (Echinochloa crus-galli); conditions: 320 g/ha
Outline: as §4

persian speedwell [18] = assay: Test Example 5: herbicidal effect by foliage application, plastic box (Table 20, symbol R); assay type: in vivo, Persian speedwell (Veronica persica)
Outline: as §3

barnyard grass [19] = assay: Test Example 5: herbicidal effect by foliage application, plastic box (Table 20, symbol H); assay type: in vivo, barnyard grass (Echinochloa crus-galli)
Outline: as §3

wild oat [20] = assay: Test Example 4: herbicidal effect by soil treatment (Table 19, symbol I); assay type: in vivo, wild oat (Avena fatua); conditions: amount of applied herbicide 320 g/ha
Outline: as §2

false cleavers [21] = assay: Test Example 4: herbicidal effect by soil treatment (Table 19, symbol Q); assay type: in vivo, false cleavers (Galium spurium); conditions: amount of applied herbicide 320 g/ha
Outline: as §2

lambsquarters [22] = assay: Test Example 5: herbicidal effect by foliage application, plastic box (Table 20, symbol O); assay type: in vivo, lambsquarters (Chenopodium album)
Outline: as §3

redroot pigweed [23] = assay: Test Example 5: herbicidal effect by foliage application, plastic box (Table 20, symbol N); assay type: in vivo, redroot pigweed (Amaranthus retroflexus)
Outline: as §3

oval-leafed pondweed = assay: Test Example 1: herbicidal activity, application before weed generation under submerged conditions (Table 16, symbol C); assay type: in vivo, oval-leafed pondweed (Monochoria vaginalis); conditions: amount of applied herbicide 320 g/ha
Outline: as §1

velvetleaf [24] = assay: Test Example 5: herbicidal effect by foliage application, plastic box (Table 20, symbol M); assay type: in vivo, velvetleaf (Abutilon theophrasti)
Outline: as §3

blackgrass [25] = assay: Test Example 5: herbicidal effect by foliage application, plastic box (Table 20, symbol J); assay type: in vivo, blackgrass (Alopecurus myosuroides)
Outline: as §3

green foxtail [26] = assay: Test Example 5: herbicidal effect by foliage application, plastic box (Table 20, symbol G); assay type: in vivo, green foxtail (Setaria viridis)
Outline: as §3

Italian ryegrass [27] = assay: Test Example 5: herbicidal effect by foliage application, plastic box (Table 20, symbol K); assay type: in vivo, Italian ryegrass (Lolium multiflorum)
Outline: as §3

[28] = foliage application, 320 g/ha, three weeks after application
[29] = amount of applied herbicide 320 g/ha, foliage application after 14-day growth, evaluated three weeks after application

| SMILES | Herbicidal effect, B: Japanese bulrush (Japanese bulrush) | J: blackgrass, herbicidal effect grade (blackgrass [1]) | G: green foxtail, herbicidal effect grade (green foxtail [2]) | R: persian speedwell, herbicidal effect grade (persian speedwell [3]) | N: redroot pigweed, herbicidal effect grade (redroot pigweed [6]) | F: southern crabgrass, herbicidal effect grade (southern crabgrass [7]) | herbicidal effect on rice flat sedge (E) (rice flat sedge) | herbicidal effect on Chinese sprangletop (D) (Chinese sprangletop) | H: barnyard grass, herbicidal effect grade (barnyard grass [9]) | P: chickweed, herbicidal effect grade (chickweed [10]) | Herbicidal effect, A: late watergrass (late watergrass) | M: velvetleaf, herbicidal effect grade (velvetleaf [13]) | L: windgrass, herbicidal effect grade (windgrass [14]) | O: lambsquarters, herbicidal effect grade (lambsquarters [15]) | K: Italian ryegrass, herbicidal effect grade (Italian ryegrass [16]) | herbicidal effect on barnyard grass (H) (barnyard grass [17]) | I: wild oat, herbicidal effect grade (wild oat [20]) | Q: false cleavers, herbicidal effect grade (false cleavers [21]) | Herbicidal effect, C: oval-leafed pondweed (oval-leafed pondweed) | also measured |
| --- | --- | --- | --- | --- | --- | --- | --- | --- | --- | --- | --- | --- | --- | --- | --- | --- | --- | --- | --- | --- |
| CCCC(=O)Oc1c(C)nn(C)c(=O)c1-c1c(-c2ccc(SC)cc2)sc2cc(OC)ccc12 [3-075] | 1 (Herbicidal rate of 5% or more and less than 20%) | 0 (Herbicidal rate of 5% or less (almost no effect)) | 0 (Herbicidal rate of 5% or less (almost no effect)) | 4 (Herbicidal rate of 70% or more and less than 90%) | 3 (Herbicidal rate of 40% or more and less than 70%) | 0 (Herbicidal rate of 5% or less (almost no effect)) | 3 (Herbicidal rate of 40% or more and less than 70%) | 3 (Herbicidal rate of 40% or more and less than 70%) | 0 (Herbicidal rate of 5% or less (almost no effect)) | 2 (Herbicidal rate of 20% or more and less than 40%) | 1 (Herbicidal rate of 5% or more and less than 20%) | 0 (Herbicidal rate of 5% or less (almost no effect)) | 0 (Herbicidal rate of 5% or less (almost no effect)) | 3 (Herbicidal rate of 40% or more and less than 70%) | 0 (Herbicidal rate of 5% or less (almost no effect)) | 0 (Herbicidal rate of 5% or less (almost no effect)) | 0 (Herbicidal rate of 5% or less (almost no effect)) | 0 (Herbicidal rate of 5% or less (almost no effect)) | 2 (Herbicidal rate of 20% or more and less than 40%) | Q: false cleavers, herbicidal effect grade (false cleavers [4]; [28]): 5 (Herbicidal rate of 90% or more (almost completely withered)); F: southern crabgrass, herbicidal effect grade (southern crabgrass [5]; [28]): 3 (Herbicidal rate of 40% or more and less than 70%); I: wild oat, herbicidal effect grade (wild oat [8]; [28]): 0 (Herbicidal rate of 5% or less (almost no effect)); L: windgrass, herbicidal effect grade (windgrass [11]; [28]): 0 (Herbicidal rate of 5% or less (almost no effect)); P: chickweed, herbicidal effect grade (chickweed [12]; [28]): 5 (Herbicidal rate of 90% or more (almost completely withered)); R: persian speedwell, herbicidal effect grade (persian speedwell [18]; [28]): 5 (Herbicidal rate of 90% or more (almost completely withered)); H: barnyard grass, herbicidal effect grade (barnyard grass [19]; [28]): 3 (Herbicidal rate of 40% or more and less than 70%); O: lambsquarters, herbicidal effect grade (lambsquarters [22]; [28]): 4 (Herbicidal rate of 70% or more and less than 90%); N: redroot pigweed, herbicidal effect grade (redroot pigweed [23]; [28]): 4 (Herbicidal rate of 70% or more and less than 90%); M: velvetleaf, herbicidal effect grade (velvetleaf [24]; [28]): 0 (Herbicidal rate of 5% or less (almost no effect)); J: blackgrass, herbicidal effect grade (blackgrass [25]; [28]): 0 (Herbicidal rate of 5% or less (almost no effect)); G: green foxtail, herbicidal effect grade (green foxtail [26]; [28]): 3 (Herbicidal rate of 40% or more and less than 70%); K: Italian ryegrass, herbicidal effect grade (Italian ryegrass [27]; [28]): 0 (Herbicidal rate of 5% or less (almost no effect)) |
| CCCC(=O)Oc1c(C)nn(C)c(=O)c1-c1c(-c2ccccc2OCC)sc2cc(F)c(F)cc12 [5-017] | 2 (Herbicidal rate of 20% or more and less than 40%) | 0 (Herbicidal rate of 5% or less (almost no effect)) | 4 (Herbicidal rate of 70% or more and less than 90%) | 5 (Herbicidal rate of 90% or more (almost completely withered)) | 5 (Herbicidal rate of 90% or more (almost completely withered)) | 4 (Herbicidal rate of 70% or more and less than 90%) | 5 (Herbicidal rate of 90% or more (almost completely withered)) | 0 (Herbicidal rate of 5% or less (almost no effect)) | 4 (Herbicidal rate of 70% or more and less than 90%) | 4 (Herbicidal rate of 70% or more and less than 90%) | 3 (Herbicidal rate of 40% or more and less than 70%) | 3 (Herbicidal rate of 40% or more and less than 70%) | 2 (Herbicidal rate of 20% or more and less than 40%) | 4 (Herbicidal rate of 70% or more and less than 90%) | 0 (Herbicidal rate of 5% or less (almost no effect)) | 5 (Herbicidal rate of 90% or more (almost completely withered)) | 3 (Herbicidal rate of 40% or more and less than 70%) | 4 (Herbicidal rate of 70% or more and less than 90%) | 2 (Herbicidal rate of 20% or more and less than 40%) | Herbicidal effect by foliage application, Q: false cleavers (false cleavers [4]; [29]): 5 (Herbicidal rate of 90% or more (almost completely withered)); Herbicidal effect by foliage application, F: southern crabgrass (southern crabgrass [5]; [29]): 1 (Herbicidal rate of 5% or more and less than 20%); Herbicidal effect by foliage application, I: wild oat (wild oat [8]; [29]): 3 (Herbicidal rate of 40% or more and less than 70%); Herbicidal effect by foliage application, L: windgrass (windgrass [11]; [29]): 3 (Herbicidal rate of 40% or more and less than 70%); Herbicidal effect by foliage application, P: chickweed (chickweed [12]; [29]): 5 (Herbicidal rate of 90% or more (almost completely withered)); Herbicidal effect by foliage application, R: persian speedwell (persian speedwell [18]; [29]): 5 (Herbicidal rate of 90% or more (almost completely withered)); Herbicidal effect by foliage application, H: barnyard grass (barnyard grass [19]; [29]): 3 (Herbicidal rate of 40% or more and less than 70%); Herbicidal effect by foliage application, O: lambsquarters (lambsquarters [22]; [29]): 1 (Herbicidal rate of 5% or more and less than 20%); Herbicidal effect by foliage application, N: redroot pigweed (redroot pigweed [23]; [29]): 2 (Herbicidal rate of 20% or more and less than 40%); Herbicidal effect by foliage application, M: velvetleaf (velvetleaf [24]; [29]): 4 (Herbicidal rate of 70% or more and less than 90%); Herbicidal effect by foliage application, J: blackgrass (blackgrass [25]; [29]): 4 (Herbicidal rate of 70% or more and less than 90%); Herbicidal effect by foliage application, G: green foxtail (green foxtail [26]; [29]): 0 (Herbicidal rate of 5% or less (almost no effect)); Herbicidal effect by foliage application, K: Italian ryegrass (Italian ryegrass [27]; [29]): 0 (Herbicidal rate of 5% or less (almost no effect)) |
